Read-outs that look alike come from different tables or passages of the source.
Target: MAT2A (Homo sapiens (Human), UniProt P31153)
Assay: MAT2A biochemical test (inorganic phosphate colorimetric, PiColorLock)
Conditions: read-out: MAT2A inhibitory Activity IC50
Source text: Test Example 1. Biochemical Test
The brief introduction of the test principle: L-methionine and ATP can be converted into SAM, inorganic phosphate, and inorganic diphosphate under the catalysis of MAT2A enzymes. The content of inorganic phosphate in the sample can be quantitatively determined by adding a developer such as ammonium molybdate or the like to the enzymatic reaction mixture, thereby reflecting the enzymatic activity of MAT2A.
Reference: The experiment referred to the method disclosed in patent WO2018045071.
Material: MAT2A screening kits were purchased from BPS bioscience (U.S.); 384-well plates were purchased from Corning Company (U.S.). • 1. MAT2A protein (Pharmaron Beijing Co., Ltd.); • 2. L-methionine (Sigma #M9625-5G) • 3. ATP (Sigma #A7699-1G) • 4. KCl (Sigma #60142-500ML-F) • 5. Tris (Sigma #T2663-1L) • 6. MgCl2 (Sigma #M1028) • 7. EDTA (Invitrogen #AM9260G) • 8. BSA (Sangon Biotech #A500023-0100) • 9. PiColorLock (abcam #ab270004)
Detection method: In the experimental group, the test compound was dissolved in DMSO, diluted to a final concentration of 10 μM using Echo, and diluted 3-fold. 80 nL of the dilution was transferred to a 384-well plate.
The experimental buffer (50 mM Tris, 50 mM KCl, 15 mM MgCl2, 100 μM EDTA, 0.005% BSA) was prepared. The MAT2A protein was diluted with the experimental buffer (at final concentration of […]). 40 μL of 2×MAT2A solution was added to the 384-well plate. The plate was centrifuged at 1000 rpm for 1 min and incubated at room temperature for 120 min.
L-methionine and ATP (the final concentration of L-methionine was […] and the final concentration of ATP was 400 μM) were diluted with the experimental buffer. 40 μL of 2×L-methionine and ATP solution was added to initiate the reaction. The plate was centrifuged at 1000 rpm for 1 min and incubated at room temperature for 90 min.
The PiColorLock™ reaction catalyst was mixed with the PiColorLock™ buffer at a ratio of 1:100 according to the instructions. 20 μL was added to each well, and the plate was shaken for 30 s. 8 μL stabilizing reagent was added, and the plate was shaken for 30 s. The signal values were measured after 30 min of incubation at room temperature.
A negative control group and a positive control group were respectively used as Bottom and Top. The negative control group was not added with MAT2A protein, and other operations were consistent with those of the experimental group. The positive control group was not added with the test compound, only added with DMSO in the same volume, and other operations were consistent with those of the experimental group.
The % Compound inhibition was calculated and fitted to give the IC50 of the compound.
% Compound inhibition=1-100%×(Signal−Bottom)/(Top−Bottom).
Signal referred to the signal value of the experimental group, Bottom referred to the average signal value of the negative control group, and Top referred to the average signal value of the positive control group.
Under the condition of this experiment, the inhibitory effect of the test compound on MAT2A can be expressed as the IC50 of the inhibition on the phosphate production level during the enzymatic reaction.

Chain of MAT2A (P31153 whole entry): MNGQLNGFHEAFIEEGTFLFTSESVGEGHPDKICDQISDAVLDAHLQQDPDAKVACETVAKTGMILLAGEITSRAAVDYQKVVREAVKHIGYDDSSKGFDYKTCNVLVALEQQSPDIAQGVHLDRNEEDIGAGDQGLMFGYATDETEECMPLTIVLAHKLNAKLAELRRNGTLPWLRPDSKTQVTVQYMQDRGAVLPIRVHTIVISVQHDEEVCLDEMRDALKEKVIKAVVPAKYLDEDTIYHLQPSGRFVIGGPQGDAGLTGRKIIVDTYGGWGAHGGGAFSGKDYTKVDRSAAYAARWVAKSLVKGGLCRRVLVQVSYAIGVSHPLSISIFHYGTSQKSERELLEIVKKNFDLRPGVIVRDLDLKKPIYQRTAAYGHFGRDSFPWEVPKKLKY

Row | Structure (SMILES) | IC50 (class symbols) [µM] | IC50 (numeric values) [µM]
1 | O=c1c2ncoc2c2ccc(C(F)(F)F)cc2n1-c1cccnc1C1CC1 (single isomer, unassigned) [Compound 85-P2, 5-(2-cyclopropylpyridin-3-yl)-7-(trifluoromethyl)oxazolo[4,5-c]quinolin-4(5H)-one] | < 0.1 | 0.0336
2 | O=c1c2ncn(C(F)F)c2c2ccc(Cl)cc2n1-c1cccnc1C1CC1 (single isomer, unassigned) [Compound 87-P2, 7-chloro-5-(2-cyclopropylpyridin-3-yl)-1-difluoromethyl-1,5-dihydro-4H-imidazo[4,5-c]quinolin-4-one] | < 0.1 | 0.0387
3 | O=c1[nH]c2c(=O)n(-c3ccccc3Cl)c3nc(C(F)(F)F)ccc3c2[nH]1 [Compound 4, 5-(2-chlorophenyl)-7-(trifluoromethyl)-3,5-dihydro-1H-imidazo[4,5-c][1,8]naphthyridine-2,4-dione] | < 0.1 | 0.0696
4 | O=c1c2cn[nH]c2c2ccc(C(F)(F)F)nc2n1-c1ccccc1Cl [Compound 7, 5-(2-chlorophenyl)-7-(trifluoromethyl)-1,5-dihydro-4H-pyrazolo[4,3-c][1,8]naphthyridin-4-one] | 0.1 to 0.5 | 0.128
5 | O=c1c2ncoc2c2ccc(C(F)(F)F)nc2n1-c1ccccc1Cl [Compound 8, 5-(2-chlorophenyl)-7-(trifluoromethyl)oxazolo[4,5-c][1,8]naphthyridin-4(5H)-one] | < 0.1 | 0.0644
6 | CCOc1ccc2c3[nH]c(=O)[nH]c3c(=O)n(-c3ccc(OC(F)F)cc3)c2n1 [Compound 10, 5-(4-(difluoromethoxy)phenyl)-7-ethoxy-3,5-dihydro-1H-imidazo[4,5-c][1,8]naphthyridine-2,4-dione] | < 0.1 | 0.033
7 | CCOc1ccc2c3[nH]c(OC)nc3c(=O)n(-c3ccc(OC(F)F)cc3)c2n1 [Compound 11, 5-(4-(difluoromethoxy)phenyl)-7-ethoxy-2-methoxy-1,5-dihydro-4H-imidazo[4,5-c][1,8]naphthyridin-4-one] | < 0.1 | 0.0566
8 | Cn1cc2c(n1)c(=O)n(-c1ccc(OC(F)F)cc1)c1nc(C(F)(F)F)ccc21 [Compound 12, 5-(4-(difluoromethoxy)phenyl)-2-methyl-7-(trifluoromethyl)-2,5-dihydro-4H-pyrazolo[3,4-c][1,8]naphthyridin-4-one] | 0.1 to 0.5 | 0.103
9 | CCOc1ccc2c3cn(C)nc3c(=O)n(-c3ccc(OC(F)F)cc3)c2n1 [Compound 13, 5-(4-(difluoromethoxy)phenyl)-7-ethoxy-2-methyl-2,5-dihydro-4H-pyrazolo[3,4-c][1,8]naphthyridin-4-one] | 0.1 to 0.5 | 0.122
10 | O=c1c2ncoc2c2ccc(C(F)(F)F)nc2n1-c1ccc(OC(F)F)cc1 [Compound 16, 5-(4-(difluoromethoxy)phenyl)-7-(trifluoromethyl)oxazolo[4,5-c][1,8]naphthyridin-4(5H)-one] | 0.1 to 0.5 | 0.122
11 | O=c1c2ocnc2c2ccc(C(F)(F)F)nc2n1-c1ccc(OC(F)F)cc1 [Compound 18, 5-(4-(difluoromethoxy)phenyl)-7-(trifluoromethyl)oxazolo[5,4-c][1,8]naphthyridin-4(5H)-one] | 0.1 to 0.5 | 0.442
12 | Cn1cnc2c(=O)n(-c3ccc(Cl)cc3)c3nc(C(F)(F)F)ccc3c21 [Compound 19, 5-(4-chlorophenyl)-1-methyl-7-(trifluoromethyl)-1,5-dihydro-4H-imidazo[4,5-c][1,8]naphthyridin-4-one] | < 0.1 | 0.0514
13 | Cn1cnc2c(=O)n(-c3ccccc3)c3nc(C(F)(F)F)ccc3c21 [Compound 21, 1-methyl-5-phenyl-7-(trifluoromethyl)-1,5-dihydro-4H-imidazo[4,5-c][1,8]naphthyridin-4-one] | < 0.1 | 0.0649
14 | Cn1cnc2c(=O)n(-c3cccc(Cl)c3)c3nc(C(F)(F)F)ccc3c21 [Compound 22, 5-(3-chlorophenyl)-1-methyl-7-(trifluoromethyl)-1,5-dihydro-1H-imidazo[4,5-c][1,8]naphthyridin-4-one] | 0.1 to 0.5 | –
15 | Cn1cnc2c(=O)n(-c3ccccc3F)c3nc(C(F)(F)F)ccc3c21 [Compound 23, 5-(2-fluorophenyl)-1-methyl-7-(trifluoromethyl)-1,5-dihydro-4H-imidazo[4,5-c][1,8]naphthyridin-4-one] | < 0.1 | 0.0788

More lines, now with the values ahead:

Row | IC50 (class symbols) [µM] | IC50 (numeric values) [µM] | Structure (SMILES)
16 | < 0.1 | 0.036 | Cn1cnc2c(=O)n(-c3cccnc3C3CC3)c3cc(C(F)(F)F)ccc3c21 (atropisomer, axis not shown) [Compound 48, 5-(2-cyclopropylpyridin-3-yl)-1-methyl-7-(trifluoromethyl)-1,5-dihydro-4H-imidazo[4,5-c]quinolin-4-one]
17 | < 0.1 | 0.042 | Cn1cnc2c(=O)n(-c3ccccc3C(F)(F)F)c3nc(C(F)(F)F)ccc3c21 (single isomer, unassigned) [Compound 57-P2, 1-methyl-7-(trifluoromethyl)-5-(2-(trifluoromethyl)phenyl)-1,5-dihydro-4H-imidazo[4,5-c][1,8]naphthyridin-4-one]
18 | < 0.1 | 0.0908 | Cn1cnc2c(=O)n(-c3ccc(OC(F)F)cc3Cl)c3nc(C(F)(F)F)ccc3c21 (single isomer, unassigned) [Compound 58-P2, 5-(2-chloro-4-(difluoromethoxy)phenyl)-1-methyl-7-(trifluoromethyl)-1,5-dihydro-4H-imidazo[4,5-c][1,8]naphthyridin-4-one]
19 | < 0.1 | 0.0414 | CCc1ncccc1-n1c(=O)c2ncn(C)c2c2ccc(C(F)(F)F)nc21 (single isomer, unassigned) [Compound 67-P2, 5-(2-ethylpyridin-3-yl)-1-methyl-7-(trifluoromethyl)-1,5-dihydro-4H-imidazo[4,5-c][1,8]naphthyridin-4-one]
20 | < 0.1 | 0.0325 | C#Cc1cccc(-n2c(=O)c3ncn(C)c3c3ccc(C(F)(F)F)nc32)c1Cl (single isomer, unassigned) [Compound 80-P2, 5-(2-chloro-3-ethynylphenyl)-1-methyl-7-(trifluoromethyl)-1,5-dihydro-4H-imidazo[4,5-c][1,8]naphthyridin-4-one]
21 | < 0.1 | 0.025 | O=c1c2ncoc2c2ccc(C(F)(F)F)nc2n1-c1cccnc1C(F)(F)F (single isomer, unassigned) [Compound 86-P2, 7-trifluoromethyl-5-(2-trifluoromethylpyridin-3-yl)oxazolo[4,5-c][1,8]naphthyridin-4(5H)-one]
22 | < 0.1 | 0.0464 | CCOc1ccc2c3c(ncn3C)c(=O)n(-c3ccc(OC(F)F)cc3)c2n1 [Compound 14, 5-(4-(difluoromethoxy)phenyl)-7-ethoxy-1-methyl-1,5-dihydro-4H-imidazo[4,5-c][1,8]naphthyridin-4-one]
23 | < 0.1 | 0.0385 | Cn1cnc2c(=O)n(-c3ccc(OC(F)F)cc3)c3nc(C(F)(F)F)ccc3c21 [Compound 15, 5-(4-(difluoromethoxy)phenyl)-1-methyl-7-(trifluoromethyl)-1H-imidazo[4,5-c][1,8]naphthyridin-4(5H)-one]
24 | 0.1 to 0.5 | 0.135 | Cn1cnc2c(=O)n(-c3c(F)cccc3Cl)c3nc(C(F)(F)F)ccc3c21 [Compound 26, 5-(2-chloro-6-fluorophenyl)-1-methyl-7-(trifluoromethyl)-1,5-dihydro-4H-imidazo[4,5-c][1,8]naphthyridin-4-one]
25 | 0.5 to 1 | 0.819 | Cc1cnccc1-n1c(=O)c2ncn(C)c2c2ccc(C(F)(F)F)nc21 [Compound 27, 1-methyl-5-(3-methylpyridin-4-yl)-7-(trifluoromethyl)-1,5-dihydro-4H-imidazo[4,5-c][1,8]naphthyridin-4-one]
26 | 0.1 to 0.5 | 0.165 | Cc1ccncc1-n1c(=O)c2ncn(C)c2c2ccc(C(F)(F)F)nc21 [Compound 28, 1-methyl-5-(4-methylpyridin-3-yl)-7-(trifluoromethyl)-1,5-dihydro-4H-imidazo[4,5-c][1,8]naphthyridin-4-one]
